Several values for one entry are separate records, joined by “and”; a condition that tells them apart may be missing. Identical values can stand only once.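 Step 1: Grow cells in 96-well plates. Step 2: Expose to compound for 48 hours at 5 concentrations. Step 3: Interpolate endpoints linearly; if unreached, use highest concentration. GI50 is the concentration that inhibits growth by half. The concentration for full growth arrest is given as TGI.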
Legend:
Assay in all cases: growth of human tumour cells (NCI), 48 h
OVCAR-8 ovarian = system: OVCAR-8 ovarian
RXF 393 renal = system: RXF 393 renal
SN12C renal = system: SN12C renal
OVCAR-5 ovarian = system: OVCAR-5 ovarian
KM12 colon = system: KM12 colon
HT29 colon = system: HT29 colon
ACHN renal = system: ACHN renal
SK-MEL-5 melanoma = system: SK-MEL-5 melanoma
HCT-15 colon = system: HCT-15 colon
MDA-N = system: MDA-N
MOLT-4 leukemia = system: MOLT-4 leukemia
SK-MEL-2 melanoma = system: SK-MEL-2 melanoma
CCRF-CEM leukemia = system: CCRF-CEM leukemia
M14 melanoma = system: M14 melanoma
HOP-62 NSCLC = system: HOP-62 NSCLC
COLO 205 colon = system: COLO 205 colon
MALME-3M melanoma = system: MALME-3M melanoma
MDA-MB-231 breast = system: MDA-MB-231 breast
UACC-257 melanoma = system: UACC-257 melanoma
TK-10 renal = system: TK-10 renal
OVCAR-3 ovarian = system: OVCAR-3 ovarian
SW-620 colon = system: SW-620 colon
A498 renal = system: A498 renal
SF-295 CNS = system: SF-295 CNS
HS 578T breast = system: HS 578T breast
IGROV1 ovarian = system: IGROV1 ovarian
SK-MEL-28 melanoma = system: SK-MEL-28 melanoma
RPMI-8226 leukemia = system: RPMI-8226 leukemia
SNB-19 CNS = system: SNB-19 CNS
HCT-116 colon = system: HCT-116 colon
U251 CNS = system: U251 CNS
PC-3 prostate = system: PC-3 prostate
NCI-H522 lung = system: NCI-H522 lung
LOX IMVI melanoma = system: LOX IMVI melanoma
BT-549 breast = system: BT-549 breast
DU-145 prostate = system: DU-145 prostate
NCI-H23 lung = system: NCI-H23 lung
786-0 renal = system: 786-0 renal
A549 NSCLC = system: A549 NSCLC
CAKI-1 renal = system: CAKI-1 renal
NCI/ADR-RES ovarian = system: NCI/ADR-RES ovarian
NCI-H226 lung = system: NCI-H226 lung
HL-60(TB) leukemia = system: HL-60(TB) leukemia
T-47D breast = system: T-47D breast
EKVX NSCLC = system: EKVX NSCLC
MCF7 breast = system: MCF7 breast
SF-268 CNS = system: SF-268 CNS
UACC-62 melanoma = system: UACC-62 melanoma
NCI-H460 lung = system: NCI-H460 lung
K-562 leukemia = system: K-562 leukemia
UO-31 renal = system: UO-31 renal
MDA-MB-435 = system: MDA-MB-435
OVCAR-4 ovarian = system: OVCAR-4 ovarian
HCC-2998 colon = system: HCC-2998 colon
SK-OV-3 ovarian = system: SK-OV-3 ovarian
HOP-92 NSCLC = system: HOP-92 NSCLC
SNB-75 CNS = system: SNB-75 CNS
SF-539 CNS = system: SF-539 CNS

CCc1n[nH]c(=O)n1/N=C/c1ccc(/C=N/n2c(CC)n[nH]c2=O)cc1
TGI (OVCAR-8 ovarian): > 100000 nM
TGI (RXF 393 renal): > 100000 nM
TGI (SN12C renal): > 100000 nM
TGI (OVCAR-5 ovarian): > 100000 nM
TGI (KM12 colon): > 100000 nM
TGI (HT29 colon): > 100000 nM
TGI (ACHN renal): > 100000 nM
TGI (SK-MEL-5 melanoma): > 100000 nM
TGI (HCT-15 colon): > 100000 nM
TGI (MDA-N): > 100000 nM
TGI (MOLT-4 leukemia): > 100000 nM
TGI (SK-MEL-2 melanoma): > 100000 nM
TGI (CCRF-CEM leukemia): > 100000 nM
TGI (M14 melanoma): > 100000 nM
TGI (HOP-62 NSCLC): > 100000 nM
TGI (COLO 205 colon): > 100000 nM
TGI (MALME-3M melanoma): > 100000 nM
TGI (MDA-MB-231 breast): > 100000 nM
TGI (UACC-257 melanoma): > 100000 nM
TGI (TK-10 renal): > 100000 nM
TGI (OVCAR-3 ovarian): > 100000 nM
TGI (SW-620 colon): > 100000 nM
TGI (A498 renal): > 100000 nM
TGI (SF-295 CNS): > 100000 nM
TGI (HS 578T breast): > 100000 nM
TGI (IGROV1 ovarian): > 100000 nM
TGI (SK-MEL-28 melanoma): > 100000 nM
TGI (RPMI-8226 leukemia): > 100000 nM
TGI (SNB-19 CNS): > 100000 nM
TGI (HCT-116 colon): > 100000 nM
TGI (U251 CNS): > 100000 nM
TGI (PC-3 prostate): > 100000 nM
TGI (NCI-H522 lung): > 100000 nM
TGI (LOX IMVI melanoma): > 100000 nM
TGI (BT-549 breast): > 100000 nM
TGI (DU-145 prostate): > 100000 nM
TGI (NCI-H23 lung): > 100000 nM
TGI (786-0 renal): > 100000 nM
TGI (A549 NSCLC): > 100000 nM
TGI (CAKI-1 renal): > 100000 nM
TGI (NCI/ADR-RES ovarian): > 100000 nM
TGI (NCI-H226 lung): > 100000 nM
TGI (HL-60(TB) leukemia): > 100000 nM
TGI (T-47D breast): > 100000 nM
TGI (EKVX NSCLC): > 100000 nM
TGI (MCF7 breast): > 100000 nM
TGI (SF-268 CNS): > 100000 nM
TGI (UACC-62 melanoma): > 100000 nM
TGI (NCI-H460 lung): > 100000 nM
TGI (K-562 leukemia): > 100000 nM
TGI (UO-31 renal): > 100000 nM
TGI (MDA-MB-435): > 100000 nM
TGI (OVCAR-4 ovarian): > 100000 nM

COc1cccc2c1C(=O)c1c(O)c3c(c(O)c1C2=O)C[C@@](O)(C(=O)CO)C[C@@H]3OC1CC2C(OCN3CN2COC2C(C)OC(O[C@H]4C[C@](O)(C(=O)CO)Cc5c(O)c6c(c(O)c54)C(=O)c4c(OC)cccc4C6=O)CC23)C(C)O1 (stereo partly specified)
GI50 (OVCAR-8 ovarian): 17.6 nM
TGI (OVCAR-8 ovarian): 4220 nM and 1270 nM
GI50 (RXF 393 renal): 14.8 nM
TGI (RXF 393 renal): 64.1 nM and 148 nM
GI50 (HCC-2998 colon): 75 nM and 23.9 nM
TGI (HCC-2998 colon): 277 nM and 500 nM and 104 nM
GI50 (SN12C renal): 12.1 nM
TGI (SN12C renal): 96.6 nM and 134 nM and 35.9 nM
GI50 (OVCAR-5 ovarian): 88.6 nM and 20.2 nM
GI50 (KM12 colon): 46 nM and 17.9 nM
TGI (KM12 colon): 2640 nM and 294 nM
GI50 (HT29 colon): 19.9 nM
TGI (HT29 colon): 148 nM
GI50 (ACHN renal): 8.2 nM
TGI (ACHN renal): 673 nM
GI50 (SK-MEL-5 melanoma): 44.7 nM
TGI (SK-MEL-5 melanoma): 236 nM and 263 nM
GI50 (HCT-15 colon): 118 nM and 51.7 nM
GI50 (MDA-N): 52.2 nM and 21 nM
TGI (MDA-N): 229 nM and 272 nM and 131 nM
TGI (MOLT-4 leukemia): 6.58 nM
GI50 (SK-MEL-2 melanoma): 23 nM
TGI (SK-MEL-2 melanoma): 112 nM and 67 nM
GI50 (CCRF-CEM leukemia): 3.01 nM
GI50 (M14 melanoma): 50.5 nM
TGI (M14 melanoma): 332 nM and 381 nM
GI50 (HOP-62 NSCLC): 21.8 nM
TGI (HOP-62 NSCLC): 419 nM and 2770 nM and 1230 nM
GI50 (COLO 205 colon): 12.7 nM
TGI (COLO 205 colon): 473 nM and 312 nM
GI50 (MALME-3M melanoma): 15.9 nM
TGI (MALME-3M melanoma): 197 nM and 80.9 nM
GI50 (MDA-MB-231 breast): 48.2 nM
TGI (MDA-MB-231 breast): 705 nM and 893 nM
GI50 (UACC-257 melanoma): 24.4 nM
TGI (UACC-257 melanoma): 198 nM and 381 nM and 136 nM
GI50 (TK-10 renal): 232 nM
GI50 (SK-OV-3 ovarian): 131 nM and 42.9 nM
TGI (SK-OV-3 ovarian): 25000 nM and 4710 nM
GI50 (OVCAR-3 ovarian): 46.7 nM and 15.4 nM
GI50 (SW-620 colon): 10.4 nM
GI50 (A498 renal): 3.82 nM
GI50 (SF-295 CNS): 31.2 nM
TGI (SF-295 CNS): 3450 nM and 1350 nM
GI50 (HS 578T breast): 32.1 nM
GI50 (IGROV1 ovarian): 17.6 nM
GI50 (SK-MEL-28 melanoma): 49.3 nM
TGI (SK-MEL-28 melanoma): 574 nM and 294 nM
GI50 (RPMI-8226 leukemia): 4.87 nM
TGI (RPMI-8226 leukemia): 11.6 nM
GI50 (SNB-19 CNS): 15.2 nM
TGI (SNB-19 CNS): 3200 nM
GI50 (HCT-116 colon): 16.6 nM
TGI (HCT-116 colon): 537 nM and 85.6 nM
GI50 (U251 CNS): 7.72 nM
TGI (U251 CNS): 710 nM and 2600 nM
GI50 (HOP-92 NSCLC): 15.3 nM and 15.9 nM
TGI (HOP-92 NSCLC): 381 nM and 263 nM and 506 nM
GI50 (PC-3 prostate): 50.1 nM
TGI (PC-3 prostate): 935 nM and 890 nM
GI50 (NCI-H522 lung): 6.8 nM
TGI (NCI-H522 lung): 160 nM and 53.8 nM
TGI (LOX IMVI melanoma): 204 nM and 28.7 nM
GI50 (BT-549 breast): 117 nM and 26.2 nM
TGI (BT-549 breast): 734 nM and 1320 nM and 210 nM
GI50 (DU-145 prostate): 11.9 nM
GI50 (NCI-H23 lung): 11.6 nM
TGI (NCI-H23 lung): 209 nM and 108 nM and 21.7 nM
GI50 (786-0 renal): 7.92 nM
GI50 (A549 NSCLC): 12.8 nM
TGI (A549 NSCLC): 4630 nM
GI50 (CAKI-1 renal): 17.5 nM
GI50 (NCI/ADR-RES ovarian): 325 nM and 58.6 nM
TGI (NCI/ADR-RES ovarian): 25000 nM and 8210 nM
GI50 (NCI-H226 lung): 35.7 nM and 10.2 nM
GI50 (HL-60(TB) leukemia): 2.67 nM
GI50 (T-47D breast): 69.7 nM
GI50 (EKVX NSCLC): 85.5 nM and 19.9 nM
TGI (EKVX NSCLC): 616 nM and 72 nM
GI50 (SF-268 CNS): 6.35 nM and 12.2 nM
GI50 (UACC-62 melanoma): 5.01 nM
GI50 (SNB-75 CNS): 7.56 nM
TGI (SNB-75 CNS): 66.3 nM and 34.2 nM
GI50 (SF-539 CNS): 5.53 nM
GI50 (MDA-MB-435): 64.9 nM and 26.7 nM
TGI (MDA-MB-435): 374 nM and 352 nM and 133 nM
GI50 (OVCAR-4 ovarian): 104 nM
TGI (OVCAR-4 ovarian): 5220 nM
